Results on 2 compounds are retold here after patent US20170107294A1, “ANTI-CD14 ANTIBODIES AND USES THEREOF” (Nordlandssykehuset HF, priority 2014, published 2017).

One assay concerns the target factor D (Homo sapiens, UniProt P00746). Particulars: cited from earlier work.
In another assay the target is human C1q (Homo sapiens, UniProt P02745+P02746+P02747). As to the kind of experiment: ELISA for C1q binding. How it is done: Ninety-six-well plates (Nunc, Roskilde, Denmark) were coated with serial dilution of the Abs (6.0-0.09 mg/ml) and incubated overnight at 4° C. followed by washing three times with PBS/Tween (pH 7.4). The wells were blocked with 4% skimmed milk (Neogen Europe, Auchincruive, U.K.) for 1 h at room temperature and then washed in PBS/Tween (pH 6.0). Purified hFcRn-GST or pFcRn-GST (1 mg/ml) were diluted in 4% skimmed milk in PBS/Tween (pH 6.0) and preincubated with an HRP-conjugated anti-GST Ab (GE Healthcare U.K., Buckinghamshire, U.K.) diluted 1:5000 and added to the wells. The plates were incubated for 1 h at room temperature and washed with PBS/Tween (pH 6.0). Bound receptor was detected by adding 100 ml of 3,39,5,59-tetramethylbenzidine substrate (Calbiochem-Novabiochem, Nottingham, U.K.). The absorbance was measured at 450 nm using a Sunrise TECAN spectrophotometer. The assay described above was also performed using PBS/Tween (pH 7.4) in all steps. The same setup was used with GST-fused versions of hFcgRI, hFcgRIIa (allotype His131), hFcgRIIb, hFcgRIIIa (allotype Val158), and hFcgRIIIb (1 mg/ml each). In addition, a biotinylated human C1q (hC1 q; 4 mg/ml) preparation was incubated with the Abs and detected using ALP-conjugated streptavidin (GE Healthcare). Absorbance was measured at 405 nm.
A general note: ELISA stands for enzyme-linked immunosorbent assay.

Sequence of human C1q (P02745 23-245): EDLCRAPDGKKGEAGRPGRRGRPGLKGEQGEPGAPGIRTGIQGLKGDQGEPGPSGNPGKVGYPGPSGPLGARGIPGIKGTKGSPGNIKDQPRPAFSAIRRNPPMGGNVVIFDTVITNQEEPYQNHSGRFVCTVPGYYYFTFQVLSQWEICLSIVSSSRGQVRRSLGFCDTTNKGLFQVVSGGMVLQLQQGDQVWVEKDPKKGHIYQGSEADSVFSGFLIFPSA
Sequence of human C1q (P02746 28-253): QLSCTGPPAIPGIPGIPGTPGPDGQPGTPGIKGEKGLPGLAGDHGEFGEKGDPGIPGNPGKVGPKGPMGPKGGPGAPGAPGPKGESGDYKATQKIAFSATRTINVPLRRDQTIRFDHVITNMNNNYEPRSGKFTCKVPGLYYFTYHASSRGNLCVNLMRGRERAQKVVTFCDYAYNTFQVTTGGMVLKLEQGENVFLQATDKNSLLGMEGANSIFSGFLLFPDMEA
Sequence of human C1q (P02747 29-245): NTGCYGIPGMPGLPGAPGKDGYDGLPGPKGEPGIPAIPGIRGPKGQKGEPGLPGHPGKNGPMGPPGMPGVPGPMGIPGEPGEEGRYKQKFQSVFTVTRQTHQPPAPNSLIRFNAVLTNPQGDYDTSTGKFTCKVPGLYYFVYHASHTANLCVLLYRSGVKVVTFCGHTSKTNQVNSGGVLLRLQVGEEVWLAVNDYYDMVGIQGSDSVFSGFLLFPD
Sequence of factor D (P00746 26-253): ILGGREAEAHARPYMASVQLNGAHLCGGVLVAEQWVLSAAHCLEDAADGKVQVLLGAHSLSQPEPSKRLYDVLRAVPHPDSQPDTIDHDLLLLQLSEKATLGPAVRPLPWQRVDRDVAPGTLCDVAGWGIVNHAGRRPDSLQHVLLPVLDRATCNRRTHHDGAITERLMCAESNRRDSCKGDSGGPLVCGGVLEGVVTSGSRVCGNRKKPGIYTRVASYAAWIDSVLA

With `N=C(N)c1cc2ccc(OC(=O)c3cccs3)cc2s1` [BCX-1470], the IC50 – broadly, the concentration at which inhibition is half-maximal – on factor D is 96 nM. Turning to “rituximab: humanized anti-CD20 IgG1 Ab from Roche, control for ELISA-based binding studies”, in the assay with human C1q, the “binding to C1q” value is recorded as “did so in a dose-dependent manner”.
